In paper PMC12040169 (PLOS Biology, 2025) one finds viability data, which are given here for 58 molecules.

This data set in a line: in vitro. The note with it: human, hela cells, % viability.

Molecules are shown by their SMILES.

In general, viability refers to a read-out of living cells in per cent, often relative to untreated cells. Consider `O=C(c1cc[nH]n1)N1CCC(c2cc3ccccc3cn2)CC1` [CBK284892], for which the viability at 28.5 h, 10 µM was 91.7%.
In the case of `Cc1nn(CC(C)C)c(C)c1CCC(=O)N(C)Cc1c(C)nn(-c2ccccc2)c1C` [CBK295301], the viability at 28.5 h, 10 µM came to 108%.
The result for `CN(Cc1ccccc1)S(=O)(=O)c1ccccc1[N+](=O)[O-]` [CBK261458] reads 92.3%; that for `COc1ccc(Cl)cc1NS(=O)(=O)N1CCOCC1` [CBK269937], 93%.
In the case of `COc1ccc(NC(=O)C2CC(=O)NC3=C2C(=O)CC(c2ccco2)C3)cc1` (stereo not shown) [CBK270282], the viability at 28.5 h, 10 µM amounted to 90.6%.
For `Cc1ccc(OCC(O)CN2CCC(C(N)=O)CC2)cc1C` (stereo not shown) [CBK057100], the viability at 28.5 h, 10 µM stood at 105%.
On to `CCN1CCN(c2ncnc3sc(C)c(C)c23)CC1` [CBK288101], for which the viability at 28.5 h, 10 µM was determined as 98.6%.
The result for `Cc1nn(C)c(C(=O)NNC(=S)Nc2ccc(S(N)(=O)=O)cc2)c1Br` [CBK266963] reads 92.5%; that for `COc1ccc(-n2c(SCc3nc4ccccc4[nH]3)nc3sc4c(c3c2=O)CCCC4)cc1` [CBK267558], 100%.
On to `O=C(O)c1cc(S(=O)(=O)NCCCN2CCOCC2)ccc1Cl` [CBK299804], for which the viability at 28.5 h, 10 µM was determined as 96.8%.
In the case of `Cc1ccc(Cl)cc1N(Cc1ccc(C(=O)N2CCC(C)CC2)cc1)S(=O)(=O)c1ccccc1` [CBK033646], the viability at 28.5 h, 10 µM was determined as 107%.
For the molecule `CC(C)Oc1cc(NC(=O)CS(=O)(=O)CC(=O)N(C)C)c(Cl)cc1Cl` [CBK018112], the viability at 28.5 h, 10 µM was 113%.
`CC(=O)Nc1ccc(S(=O)(=O)NCc2ccc3[nH]c4c(c3c2)CCCC4)cc1` [CBK267122]: the viability at 28.5 h, 10 µM is 87.1%.
Take `O=C(NCCN1CCOCC1)c1cc(-c2ccccc2)on1` [CBK267479]: the viability at 28.5 h, 10 µM is 89.5%.
For the molecule `CC(=O)N1CCC(C(=O)Nc2cnc(-c3ccc(F)c(Cl)c3)c(-c3cccnc3)n2)CC1` [CBK036719], the viability at 28.5 h, 10 µM turned out to be 108%.
The result for `C=CCNC(=O)C[C@@H]1CCN(C(=O)c2cccnc2)C[C@@H]1CC` [CBK289142] reads 92.3%.
The result for `O=C1NC2(CCSC2)C(=O)N1Cc1noc(-c2cccs2)n1` (stereo not shown) [CBK306225] reads 90.6%.
The result for `CC1c2ccsc2CCN1C(=O)CC(NC(N)=O)c1cccc(Br)c1` (stereo not shown) [CBK305635] reads 110%; that for `Clc1cccc(CNc2nccnc2-c2ccoc2)c1` [CBK036616], 105%.
Turning to `COc1ccccc1CC(=O)N1CCn2cc(C(F)(F)F)nc2C1` [CBK283806], the viability at 28.5 h, 10 µM came to 84.5%.
On to `COc1ccccc1OCCOc1ccc(/C=N/n2cnnc2)cc1` [CBK263295], for which the viability at 28.5 h, 10 µM turned out to be 106%.
For `CCOC(=O)CCNC(=O)c1cc2cccc(OC)c2o1` [CBK149816], the viability at 28.5 h, 10 µM came out at 88.1%.
`Nc1n[nH]c(CCCc2nc(N)n[nH]2)n1` [CBK261016]: the viability at 28.5 h, 10 µM stood at 89.8%.
As for `COc1ccc2[nH]c3c(c2c1)CCNC31CCN(CCC2CCCCC2)C1` (stereo not shown) [CBK040111T], the viability at 28.5 h, 10 µM turned out to be 90.7%.
With `Cc1ccc(C(C)C)cc1OCC(=O)N/N=C\c1cc([N+](=O)[O-])ccc1O` [CBK261206], the viability at 28.5 h, 10 µM turned out to be 92.6%.
On to `Cn1cccc1CNCCc1ccc(S(N)(=O)=O)cc1` [CBK267831C], for which the viability at 28.5 h, 10 µM amounted to 98.7%.
In the case of `Nc1ccc(-c2cccc(C(F)(F)F)c2)c2ccccc12` [CBK084324], the viability at 28.5 h, 10 µM was found to be 80%.
Take `CN(C)CCNc1nc(-c2cccc3ncccc23)cnc1N` [CBK063693]: the viability at 28.5 h, 10 µM stood at 102%.
Take `Cc1ccc(C(=O)N2CCC(CO)CC2)cc1C` [CBK083532]: the viability at 28.5 h, 10 µM came out at 93.8%.
With `CCCC1C2C=CC(C2)C1/C=N/O` (stereo not shown) [CBK009671], the viability at 28.5 h, 10 µM amounted to 83.4%.
The result for `CCN1CC(C(=O)N2CCN(C)CC2c2ccccc2)CC1=O` (stereo not shown) [CBK282026] reads 92.2%.
`CC(C)Nc1nc2cc(Cl)c(Cl)cc2nc1SCCC(=O)O` [CBK107860]: the viability at 28.5 h, 10 µM came out at 96.1%.
In the case of `Cc1c(C(=O)N2CCn3nc(CO)cc3C2)n(C)c2ccc(F)cc12` [CBK306552], the viability at 28.5 h, 10 µM was found to be 97.7%.
For the molecule `CCn1cc(C(=O)N2CCCC2c2nccs2)c(=O)c2ccc(C)nc21` (stereo not shown) [CBK307171], the viability at 28.5 h, 10 µM amounted to 86.4%.
The result for `COc1cccc(OC)c1OCCN1CCC(NC(=O)Nc2ccc(Cl)cn2)CC1` [CBK051515] reads 94.4%.
The result for `CCCNC(=O)Cn1ncc2c3sc(C)cc3n(CC)c2c1=O` [CBK284171] reads 85.8%; that for `O=C(COc1cccc([N+](=O)[O-])c1)Nc1cc(C(=O)O)cc(C(=O)O)c1` [CBK263604], 114%.
On to `O=C(NCCNC1CCC(c2ccccc2)CC1)c1ccc(F)cc1` (stereo not shown) [CBK266857], for which the viability at 28.5 h, 10 µM came to 88.2%.
The result for `Cn1c(SCC(=O)N2CCN(c3cccc(Cl)c3)CC2)nnc1-c1cccc([N+](=O)[O-])c1` [CBK266264] reads 97.8%; that for `CCC1(CC)OC(N[C@@H](C)c2ccc(Br)cc2)=NC1=O` [CBK126665], 102%; that for `Cc1ccc(S(=O)(=O)N2C[C@H]3C[C@H](NC(=O)C(C)C)[C@H]3C2)cc1` [CBK285317], 107%.
Take `OCCN(CC#CCC(O)(c1ccccc1)c1ccccc1)CCO` [CBK263623]: the viability at 28.5 h, 10 µM was 94.1%.
Take `S=c1nc(-c2ccccc2)n2cc(Br)ccc2n1` [CBK026696]: the viability at 28.5 h, 10 µM was found to be 111%.
The result for `CC(C)(CNC(=O)c1ccc(=O)n(CC(=O)N2CCc3ccccc32)c1)c1ccccc1F` [CBK286020] reads 127%.
On to `COC(=O)c1sccc1NC(=O)/C=C/c1ccccc1` [CBK057041], for which the viability at 28.5 h, 10 µM turned out to be 115%.
Consider `O=C(O)c1ccc(NS(=O)(=O)/C=C/c2ccccc2)cc1` [CBK034062], for which the viability at 28.5 h, 10 µM turned out to be 100%.
In the case of `O=C1c2ccccc2CN1c1ccc(OC(F)(F)F)cc1` [CBK113237], the viability at 28.5 h, 10 µM was determined as 91.3%.
The result for `COCCn1c(SC2CCN(C)C2=O)nc2ccccc21` (stereo not shown) [CBK305131] reads 97.9%; that for `C=CCN1CCCC[C@H]2CN(S(=O)(=O)c3cccc(F)c3)C[C@H]21` [CBK285500], 103%; that for `COc1ccc2c(c1)C1(CC(=O)N(C)C1=O)C(=O)N2C` (stereo not shown) [CBK075146], 115%.
The result for `CCCC(=O)N1CCC(c2nc(Cc3cccs3)no2)C1` (stereo not shown) [CBK283034] reads 88%; that for `CN1CCN(CCP(=O)(c2ccccc2)c2ccccc2)CC1` [CBK020260], 94.1%; that for `Cc1cn(C2CC(O)C(CO)O2)c(=O)[nH]c1=O` (stereo not shown) [CBK011998], 93.3%.
The result for `CCOc1ccc(S(=O)(=O)N2CCN(CCCC#N)CC2)c2cccnc12` [CBK063046] reads 91.6%; that for `CN(C)c1cccc(-c2nc(-c3occc3C=O)cnc2N)c1` [CBK064001], 92.1%; that for `Cn1nc(C2CC2)cc1NC(=O)NCC1CCN(c2ccccc2F)C1` (stereo not shown) [CBK304380], 85.2%.
For the molecule `CS(=O)(=O)N1CCC(Oc2nccnc2OCc2ccc(Cl)c(Cl)c2)CC1` [CBK144910], the viability at 28.5 h, 10 µM is 90.5%.
Turning to `CCOC(=O)[C@H]1CC[C@]2(CC1)CNC(=O)c1ccccc1O2` [CBK284893], the viability at 28.5 h, 10 µM came to 92.5%.
